Assay results from patent US20250213735A1, “NEUROPEPTIDE Y1 RECEPTOR (NPY1R) TARGETED THERAPEUTICS AND USES THEREOF” (Radionetics Oncology, Inc., priority 2023, published 2025).
pKi: −log10 of the molar value. Numbered stars: 1 amine (or outer) side, 2 acyl side, 3 side chain; on linkers, the order of the positions; unused ones are H or OH. Square brackets hold non-standard residues; d marks the D form. Peptide text beside a SMILES is read from it. * marks the point of attachment. dArg(Nω-CONH(CH2)2NHCOEt) = CCC(=O)NCCNC(=O)/N=C(/N)NCCC[C@@H](N)C(=O)O; DOTA = O=C(O)CN1CCN(CC(=O)O)CCN(CC(=O)*)CCN(CC(=O)O)CC1; X1 = O=C([C@H](c1ccc(OCCCN[*:1])cc1)N1Cc2ccccc2C1)[*:2]; NH(2,6-F2-4-OH-benzyl) = Oc1cc(F)c(CN*)c(F)c1; Sar = CNCC(=O)O

Each molecule was assayed against hNPY1R (Homo sapiens (Human), UniProt P25929) (assay: NPY1R binding assay (SK-N-MC membrane, [125I]-Peptide YY competition)). Conditions: crude SK-N-MC membranes endogenously expressing NPY1R; [125I]-Peptide YY (human) 0.05 nM; 120 min at room temperature; read-out: hNPY1R binding Ki.
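Also: bound radioligand separated by filtration over GF/C filter plates and counted, Ki obtained by non-linear regression.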

Chain of hNPY1R (P25929 whole entry): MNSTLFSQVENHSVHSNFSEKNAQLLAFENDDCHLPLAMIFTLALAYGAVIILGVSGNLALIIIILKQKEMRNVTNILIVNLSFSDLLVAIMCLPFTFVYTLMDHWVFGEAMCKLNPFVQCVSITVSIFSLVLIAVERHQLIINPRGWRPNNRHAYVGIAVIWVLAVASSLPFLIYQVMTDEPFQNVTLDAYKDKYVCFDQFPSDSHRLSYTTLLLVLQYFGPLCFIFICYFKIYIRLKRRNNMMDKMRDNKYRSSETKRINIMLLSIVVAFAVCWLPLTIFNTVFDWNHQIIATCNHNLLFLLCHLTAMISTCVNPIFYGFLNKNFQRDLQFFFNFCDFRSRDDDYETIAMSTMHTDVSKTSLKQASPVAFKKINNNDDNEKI

SMILES	pKi
CCC(=O)NCCNC(=O)/N=C(/N)NCCC[C@@H](NC(=O)[C@H](c1ccccc1)N1Cc2cccc(NCCCNC(=O)C[C@H]3NC(=O)[C@@H](CCCNC(=O)CN4CCN(CC(=O)O)CCN(CC(=O)O)CCN(CC(=O)O)CC4)NC3=O)c2C1)C(=O)NCc1c(F)cc(O)cc1F [compound 40, 2,2′,2″-(10-(2-((3-((2R,5R)-5-(2-((3-((2-((1S,4R,Z)-9-amino-4-((2,6-difluoro-4-hydroxybenzyl)carbamoyl)-2,11,16-trioxo-1-phenyl-3,8,10,12,15-pentaazaoctadec-9-en-1-yl)isoindolin-4-yl)amino)propyl)amino)-2-oxoethyl)-3,6-dioxopiperazin-2-yl)propyl)amino)-2-oxoethyl)-1,4,7,10-tetraazacyclododecane-1,4,7-triyl)triacetic acid]	> 8.00
CCC(=O)NCCNC(=O)/N=C(/N)NCCC[C@@H](NC(=O)[C@H](c1ccccc1)N1Cc2cccc(NCCCNC(=O)C[C@H](O)C[C@H](O)CCNC(=O)CN3CCN(CC(=O)O)CCN(CC(=O)O)CCN(CC(=O)O)CC3)c2C1)C(=O)NCc1c(F)cc(O)cc1F [compound 41, 2,2′,2″-(10-(2-(((3R,5R)-7-((3-((2-((1S,4R,Z)-9-amino-4-((2,6-difluoro-4-hydroxybenzyl)carbamoyl)-2,11,16-trioxo-1-phenyl-3,8,10,12,15-pentaazaoctadec-9-en-1-yl)isoindolin-4-yl)amino)propyl)amino)-3,5-dihydroxy-7-oxoheptyl)amino)-2-oxoethyl)-1,4,7,10-tetraazacyclododecane-1,4,7-triyl)triacetic acid]	> 8.00
CCC(=O)NCCNC(=O)/N=C(/N)NCCC[C@@H](NC(=O)[C@H](c1ccccc1)N1Cc2cccc(NCCCNC(=O)CCC(=O)NCCNC(=O)CN3CCN(CC(=O)O)CCN(CC(=O)O)CCN(CC(=O)O)CC3)c2C1)C(=O)NCc1c(F)cc(O)cc1F [compound 42, 2,2′,2″-(10-(2-((2-(4-((3-((2-((1S,4R,Z)-9-amino-4-((2,6-difluoro-4-hydroxybenzyl)carbamoyl)-2,11,16-trioxo-1-phenyl-3,8,10,12,15-pentaazaoctadec-9-en-1-yl)isoindolin-4-yl)amino)propyl)amino)-4-oxobutanamido)ethyl)amino)-2-oxoethyl)-1,4,7,10-tetraazacyclododecane-1,4,7-triyl)triacetic acid]	> 8.00
CCC(=O)NCCNC(=O)/N=C(/N)NCCC[C@@H](NC(=O)[C@H](c1ccc(OCCCNC(=O)CCC(=O)NCCOCCNC(=O)CN2CCN(CC(=O)O)CCN(CC(=O)O)CCN(CC(=O)O)CC2)cc1)N1Cc2ccccc2C1)C(=O)NCc1c(F)cc(O)cc1F [compound 43, 2,2′,2″-(10-(17-(4-((1S,4R,Z)-9-amino-4-((2,6-difluoro-4-hydroxybenzyl)carbamoyl)-1-(isoindolin-2-yl)-2,11,16-trioxo-3,8,10,12,15-pentaazaoctadec-9-en-1-yl)phenoxy)-2,10,13-trioxo-6-oxa-3,9,14-triazaheptadecyl)-1,4,7,10-tetraazacyclododecane-1,4,7-triyl)triacetic acid]	> 8.00
CCC(=O)NCCNC(=O)/N=C(/N)NCCC[C@@H](NC(=O)[C@H](c1ccc(OCCCNC(=O)CONC(=O)CCNC(=O)CN2CCN(CC(=O)O)CCN(CC(=O)O)CCN(CC(=O)O)CC2)cc1)N1Cc2ccccc2C1)C(=O)NCc1c(F)cc(O)cc1F [compound 44, 2,2′,2″-(10-(14-(4-((1S,4R,Z)-9-amino-4-((2,6-difluoro-4-hydroxybenzyl)carbamoyl)-1-(isoindolin-2-yl)-2,11,16-trioxo-3,8,10,12,15-pentaazaoctadec-9-en-1-yl)phenoxy)-2,6,10-trioxo-8-oxa-3,7,11-triazatetradecyl)-1,4,7,10-tetraazacyclododecane-1,4,7-triyl)triacetic acid]	> 8.00
CCC(=O)NCCNC(=O)/N=C(/N)NCCC[C@@H](NC(=O)[C@H](c1ccc(OCCCNC(=O)NCCONC(=O)CN2CCN(CC(=O)O)CCN(CC(=O)O)CCN(CC(=O)O)CC2)cc1)N1Cc2ccccc2C1)C(=O)NCc1c(F)cc(O)cc1F [compound 45, 2,2′,2″-(10-(12-(4-((1S,4R,Z)-9-amino-4-((2,6-difluoro-4-hydroxybenzyl)carbamoyl)-1-(isoindolin-2-yl)-2,11,16-trioxo-3,8,10,12,15-pentaazaoctadec-9-en-1-yl)phenoxy)-2,8-dioxo-4-oxa-3,7,9-triazadodecyl)-1,4,7,10-tetraazacyclododecane-1,4,7-triyl)triacetic acid]	> 8.00
CCC(=O)NCCNC(=O)/N=C(/N)NCCC[C@@H](NC(=O)[C@H](c1ccc(OCCCNC(=O)CN(C)C(=O)CN(C)C(=O)CN(C)C(=O)CN2CCN(CC(=O)O)CCN(CC(=O)O)CCN(CC(=O)O)CC2)cc1)N1Cc2ccccc2C1)C(=O)NCc1c(F)cc(O)cc1F [compound 46, 2,2′,2″-(10-(15-(4-((1S,4R,Z)-9-amino-4-((2,6-difluoro-4-hydroxybenzyl)carbamoyl)-1-(isoindolin-2-yl)-2,11,16-trioxo-3,8,10,12,15-pentaazaoctadec-9-en-1-yl)phenoxy)-3,6,9-trimethyl-2,5,8,11-tetraoxo-3,6,9,12-tetraazapentadecyl)-1,4,7,10-tetraazacyclododecane-1,4,7-triyl)triacetic acid] ({DOTA}-[Sar][Sar][Sar][X1][dArg(Nω-CONH(CH2)2NHCOEt)]-{NH(2,6-F2-4-OH-benzyl)})	> 8.00
CCC(=O)NCCNC(=O)/N=C(/N)NCCC[C@@H](NC(=O)[C@H](c1ccc(OCCCNC(=O)CCNC(=O)CN2CCN(CC(=O)O)CCN(CC(=O)O)CCN(CC(=O)O)CC2)cc1)N1Cc2ccccc2C1)C(=O)NCc1c(F)cc(O)cc1F [compound 47, 2,2′,2″-(10-(2-((3-((3-(4-((1S,4R,Z)-9-amino-4-((2,6-difluoro-4-hydroxybenzyl)carbamoyl)-1-(isoindolin-2-yl)-2,11,16-trioxo-3,8,10,12,15-pentaazaoctadec-9-en-1-yl)phenoxy)propyl)amino)-3-oxopropyl)amino)-2-oxoethyl)-1,4,7,10-tetraazacyclododecane-1,4,7-triyl)triacetic acid]	> 8.00
CCC(=O)NCCNC(=O)/N=C(/N)NCCC[C@@H](NC(=O)[C@H](c1ccc(OCCCNC(=O)[C@@H](CO)NC(=O)CCNC(=O)CN2CCN(CC(=O)O)CCN(CC(=O)O)CCN(CC(=O)O)CC2)cc1)N1Cc2ccccc2C1)C(=O)NCc1c(F)cc(O)cc1F [compound 48, 2,2′,2″-(10-(2-((3-(((R)-1-((3-(4-((1S,4R,Z)-9-amino-4-((2,6-difluoro-4-hydroxybenzyl)carbamoyl)-1-(isoindolin-2-yl)-2,11,16-trioxo-3,8,10,12,15-pentaazaoctadec-9-en-1-yl)phenoxy)propyl)amino)-3-hydroxy-1-oxopropan-2-yl)amino)-3-oxopropyl)amino)-2-oxoethyl)-1,4,7,10-tetraazacyclododecane-1,4,7-triyl)triacetic acid]	> 8.00
CCC(=O)NCCNC(=O)/N=C(/N)NCCC[C@@H](NC(=O)[C@H](c1ccc(OCCCNC(=O)CCC(=O)NCCNC(=O)CCC(C(=O)O)N2CCN(CC(=O)O)CCN(CC(=O)O)CCN(CC(=O)O)CC2)cc1)N1Cc2ccccc2C1)C(=O)NCc1c(F)cc(O)cc1F (stereo partly drawn) [compound 49, 2,2′,2″-(10-(4-((2-(4-((3-(4-((1S,4R,Z)-9-amino-4-((2,6-difluoro-4-hydroxybenzyl)carbamoyl)-1-(isoindolin-2-yl)-2,11,16-trioxo-3,8,10,12,15-pentaazaoctadec-9-en-1-yl)phenoxy)propyl)amino)-4-oxobutanamido)ethyl)amino)-1-carboxy-4-oxobutyl)-1,4,7,10-tetraazacyclododecane-1,4,7-triyl)triacetic acid]	> 8.00
